Results as given in patent US7396835B2, “Process for the preparation of tubulin inhibitors” (Wyeth, priority 2003, dated 2008).
Counter-ions that a name gives are not always drawn.

Assay: Water uptake and stability of the succinate salt under relative humidity
Type: physicochemical
Conditions: about 20° C. to about 30° C.
Protocol: To a suspension of NaH (40.9 g, 1.02 mol, 60% in oil) in anhydrous THF (750 mL) is added 3-methylamino-propan-1-ol (115 g, 1.21 mol) at about 20-30° C. dropwise over 30 min. The mixture is stirred for 30 min. Then, a solution of [5-chloro-6-(2,4,6-trifluoro-phenyl)-[1,2,4]triazolo[1,5-a]pyrimidin-7-yl]-((1S)-2,2,2-trifluoro-1-methyl-ethyl)-amine (150 g, 0.379 mol) in THF (150 mL) is added slowly over 15 min. The mixture is heated to 60° C. and stirred for 16 h, then cooled to 0-6° C. Cold water (1500 mL) is added dropwise while maintain the temperature between 10±3° C. THF is removed by distillation. The reaction mixture is extracted with t-butylmethyl ether (TBME, 2×1000 mL) and to the separated aqueous phase is added in portions succinic acid (296 g, 2.51 mol) is added in portions and followed by addition of TBME (1000 mL). The mixture is cooled to 3±3° C. and stirred for 1 h. The crude solid product is filtered, washed with cold water (150 mL) and TBME (2×400 mL). The wet solid is dissolved into water (2000 mL) at about 75° C. The solution is filtered at 60-70° C. and cooled to 0° C. over 1 h and stirred for 1 h at this temperature. The solid is filtered and dried at 35° C./10 mmHg for 20 h to give a white solid in anhydrous form (175 g, 80%, >99% HPLC area purity and 99% ee). […]

CNCCCOc1cc(F)c(-c2c(Cl)nc3ncnn3c2N[C@@H](C)C(F)(F)F)c(F)c1 [Example 4, 5-Chloro-6-{2,6-difluoro-4-[3-(methylamino)propoxy]phenyl}-N-[(1S)-2,2,2-trifluoro-1-methylethyl][1,2,4]triazolo[1,5-a]pyrimidin-7-amine Succinate Salt Dihydrate]
stability of the dihydrate (5%-100% relative humidity): stable | water absorbed by the anhydrous compound (anhydrous succinate salt, drying dish of 80%-100% relative humidity, 24 h, uptake then stopped): 5.8 % wt
